Source: patent publication US4711898A, “4-quinolone derivatives having anti-inflammatory, anti-allergic, antitussive, expectorant and antithrombotic activity” (Nippon Shinyaku Co., Ltd., priority 1982, dated 1987)
Where two headings read alike, the source gives them in different places.

How the values were obtained:
carrageenin edema = test: Carrageenin edema at the hind foot of rats; type: in vivo, SD-strain rats; conditions: Rattus norvegicus, po, 3 h, read-out: % Inhibition (carrageenin edema)
Method: The anti-inflammatory action of the compounds of the present invention were evaluated by measuring the inhibition against carrageenin edema as set forth below. Carrageenin edema at the hind foot of rats: Experimental method. SD-strain rats of body weights of around 150 grams were used, each group consisting of five rats. A solution (0.1 ml) of 0.5% carrageenin dissolved in physiological saline water was subcutaneously injected into the right hind foot pat of the rats and, one hour prior to the injection of carrageenin, 200 mg/kg of test compound was given per os. Foot volumes of the rats before the carrageenin treatment and those of three hours after the treatment were measured and the differences were compared with those of the control group to adopt as a target of the effect of the compounds.

[1] = tested on: SRS-A (slow reacting substance of anaphylaxis) contraction of ileum; test: Anti-SRS-A action using ileus of guinea pigs; type: cell-based, Hartley strain male guinea pigs; conditions: Cavia porcellus, 5 min, 1/1000 mM; guinea pig ileum; SRS-A 20 units; compound five minutes before; read-out: 1/1000 mM SRS-A Inhibition Ratio %
Method: (§1) The compounds of the present invention have been evaluated for their anti-allergenic action by passive cutaneous anaphylatic assay (PCA) in rats and by measuring the anti-SRS-A action using ileus of guinea pigs.
Anti-SRS-A action (An anti-acton against slow reacting substance of anaphylaxis).
Hartley strain male guinea pigs (300 to 350 grams body weight) are killed and 1.0 to 1.5 cm of ileum is immeidiately excised from ileocecal parts and is suspended in 10 ml of Tyrode solution (95% 02 -5% CO2 saturation) containing 10^-7 g/ml of atropine and 10^-6 g/ml of pyrilamine. SRS-A (20 units) (the amount of SRS-A showing the same contradiction as 5 ng of histamine is defined as 1 unit) prepared by using sensitized guinea pig lung is given to cause contraction there. Then antagonistic action of test compounds treated five minutes ago against the contraction is measured and recorded via isotonic transducer. [formula] in which A' is a height of contraction of SRS-A+test compound and A is that of SRS-A.

[2] = tested on: passive cutaneous anaphylaxis (DNP-As homocytotropic antiserum); test: passive cutaneous anaphylatic assay (PCA) in rats; type: in vivo, Wistar strain rats; conditions: Rattus norvegicus, po, 1 h, 10 mg/kg orally, one hour before antigen, read-out: PCA Inhibition Ratio %
Method: as §1
(i) Antiserum abundant in homocytotropic antibody is prepared by the same method as Tada and Okumura did (cf. Journal of Immunology, vol. 106, page 1002, 1971). Thus, 1 mg (calculated as an amount of protein) of DNP-As (2,4-dinitrophenylcoupled ascaris extract) prepared by methods of Strejan and Campbell (Journal of Immunology, vol. 98, p. 893, 1967) and of Eisen (Journal of Amer. Chem. Soc., vol. 75, p 4593, 1953) and 1×10^10pertussis vaccine are administered to each paw of Wistar strain rats (180 to 200 grams body weights) by dividing the dose by four. Five days later, 0.5 mg of DNP-As is administered into muscle of back. Eight days later from the initial immunization, blood is taken from discending aorta under anesthetizing with ether, the resulting serum is stored at -80° and is melted before use.
(ii) Effect of tested compounds is investigated as follows:
Anti-serum obtained by th method (i) is diluted with physiological saline solution double by double successively and 0.05 ml of each diluted solution is administered into the back of Wistar strain rats (140 to 160 grams body weight) intradermally. After 72 hours, a solution of 2 mg (calculated as protein) of DNP-As and 2.5 mg of Evans Blue dissolved in 1 ml of physiological saline solution is administered intraveously at a dose of 5 ml/kg. After 30 minutes from the antigen solution administration, the animals are killed and the diameters of blue spots which appeared at the place where antiserum was administered were measured. The PCA test is conducted by the same method as already described using a diluted solutions of antiserum which always show 10 mm or more of spot diameters and the effect of the test compounds is judged. Thus antiserum diluted solutions are administered into two places in the back. Test compounds are administered orally at the dose of 10 mg/kg one hour before administration of the antigen solution. From the skin of reacted parts of killed animals, leaked or emitted dyestuff is extracted and the amount of the dyestuff is measured. The inhibition ratio is calculated by the following expression: [formula] in which A' is an amount of dyestuff in the group treated with the test compounds and A is that in the control group.

[3] = 200 mg/kg per os, one hour before carrageenin, foot volume three hours after

Work on `CC(=O)Oc1ccccc1C(=O)O` [Acetylsalicylic Acid, reference compound] yielded an inhibition in vivo at 200 mg/kg (carrageenin edema) of 31.6%.
`COC(=O)c1ccc2c(c1)C(=O)CC(c1ccccc1)=N2` [Example 1, Methyl 2-phenyl-4-quinolone-6-carboxylate] gave an inhibition at 1 µM [1] of 77%, an inhibition in vivo at 200 mg/kg (carrageenin edema; [3]) of 34% and an inhibition in vivo at 10 mg/kg [2] of 25.4%.
For `CCOC(=O)c1ccc2c(c1)C(=O)CC(c1ccccc1)=N2` [Example 4, Ethyl 2-phenyl-4-quinolone-6-carboxylate], the inhibition at 1 µM [1] was 27.5%, the inhibition in vivo at 200 mg/kg (carrageenin edema; [3]) was 14.2% and the inhibition in vivo at 10 mg/kg [2] was 25.7%.
Compound `O=C(O)c1ccc2[nH]c(-c3ccccc3Cl)cc(=O)c2c1` [Example 22] has an inhibition at 1 µM [1] of 26.4%, an inhibition in vivo at 200 mg/kg (carrageenin edema; [3]) of 14.8% and an inhibition in vivo at 10 mg/kg [2] of 35.8%.
In the case of `O=C(O)c1ccc2[nH]c(-c3ccc(Cl)c(Cl)c3)cc(=O)c2c1` [Example 38], the inhibition at 1 µM [1] is reported as 20.5%, the inhibition in vivo at 200 mg/kg (carrageenin edema; [3]) is reported as 12.8% and the inhibition in vivo at 10 mg/kg [2] is reported as 20.4%.
`COC(=O)c1ccc2[nH]c(-c3cc(Cl)ccc3Cl)cc(=O)c2c1` [Example 39] showed an inhibition at 1 µM [1] of 66%, an inhibition in vivo at 200 mg/kg (carrageenin edema; [3]) of 30% and an inhibition in vivo at 10 mg/kg [2] of 24.8%.
`COC(=O)c1ccc2[nH]c(-c3ccccc3C)cc(=O)c2c1` [Example 41] was tested, and the inhibition at 1 µM [1] was 29.1%, the inhibition in vivo at 200 mg/kg (carrageenin edema; [3]) was 18.9% and the inhibition in vivo at 10 mg/kg [2] was 29.5%.
With `COC(=O)c1ccc2[nH]c(-c3ccc(OC)cc3OC)cc(=O)c2c1` [Example 64] the inhibition at 1 µM [1] was 48.2%, the inhibition in vivo at 200 mg/kg (carrageenin edema; [3]) was 10.1% and the inhibition in vivo at 10 mg/kg [2] was 17.7%.
For `COC(=O)c1ccc2[nH]c(-c3ccncc3)cc(=O)c2c1` [Example 70], the inhibition at 1 µM [1] was 21.4%, the inhibition in vivo at 200 mg/kg (carrageenin edema; [3]) was 17.1% and the inhibition in vivo at 10 mg/kg [2] was 22.3%.
In the case of `COC(=O)c1ccc2[nH]c(-c3ccco3)cc(=O)c2c1` [Example 76], the inhibition at 1 µM [1] is reported as 25.6%, the inhibition in vivo at 200 mg/kg (carrageenin edema; [3]) is reported as 14.5% and the inhibition in vivo at 10 mg/kg [2] is reported as 21.3%.
Compound `CCOC(=O)c1cccc2c(=O)cc(-c3cccc(Cl)c3)[nH]c12` [Example 86] has an inhibition at 1 µM [1] of 62.5%, an inhibition in vivo at 200 mg/kg (carrageenin edema; [3]) of 29.5% and an inhibition in vivo at 10 mg/kg [2] of 20.1%.
In the case of `CCOC(=O)c1cccc2c(=O)cc(-c3ccc(OC)c(OC)c3)[nH]c12` [Example 98], the inhibition at 1 µM [1] is reported as 20.4%, the inhibition in vivo at 200 mg/kg (carrageenin edema; [3]) is reported as 16.1% and the inhibition in vivo at 10 mg/kg [2] is reported as 16.4%.
Work on `COc1ccc(-c2cc(=O)c3cccc(C(=O)O)c3[nH]2)cc1OC` [Example 99] yielded an inhibition at 1 µM [1] of 21.7%, an inhibition in vivo at 200 mg/kg (carrageenin edema; [3]) of 36.8% and an inhibition in vivo at 10 mg/kg [2] of 13.2%.
With `CCOC(=O)c1cccc2c(=O)cc(-c3ccccc3C)[nH]c12` [Example 104] the inhibition at 1 µM [1] was 19.8%, the inhibition in vivo at 200 mg/kg (carrageenin edema; [3]) was 53.7% and the inhibition in vivo at 10 mg/kg [2] was 10.4%.
Work on `CCOC(=O)c1cccc2c(=O)cc(-c3ccc(C(C)C)cc3)[nH]c12` [Example 106] yielded an inhibition at 1 µM [1] of 44%, an inhibition in vivo at 200 mg/kg (carrageenin edema; [3]) of 50.9% and an inhibition in vivo at 10 mg/kg [2] of 33.4%.
With `CCOC(=O)c1cccc2c(=O)cc(-c3ccc(OC)cc3OC)[nH]c12` [Example 108] the inhibition at 1 µM [1] was 95%, the inhibition in vivo at 200 mg/kg (carrageenin edema; [3]) was 51% and the inhibition in vivo at 10 mg/kg [2] was 14%.
`O=C1CC(c2ccccc2Cl)=Nc2c1cccc2C(=O)OCCO` [Example 109, Beta-Hydroxyethyl 2-(2-chlorophenyl)-4-quinolone-8-carboxylate] showed an inhibition at 1 µM [1] of 100%, an inhibition in vivo at 200 mg/kg (carrageenin edema; [3]) of 30.7% and an inhibition in vivo at 10 mg/kg [2] of 29.2%.
`CCOC(=O)CCCOC(=O)c1cccc2c(=O)cc(-c3ccccc3Cl)[nH]c12` [Example 124] was tested, and the inhibition in vivo at 200 mg/kg (carrageenin edema; [3]) was 14.5%.
`COc1ccc(-c2cc(=O)c3cccc(C(=O)OCCO)c3[nH]2)cc1` [Example 138] showed an inhibition at 1 µM [1] of 25.4% and an inhibition in vivo at 10 mg/kg [2] of 12.7%.
In the case of `COc1ccc(-c2cc(=O)c3cccc(C(=O)OCCO)c3[nH]2)c(OC)c1` [Example 139], the inhibition at 1 µM [1] is reported as 63.3% and the inhibition in vivo at 10 mg/kg [2] is reported as 18.4%.
`COc1ccc(-c2cc(=O)c3cccc(C(=O)OCCO)c3[nH]2)cc1OC` [Example 140] showed an inhibition at 1 µM [1] of 18.3% and an inhibition in vivo at 10 mg/kg [2] of 19.4%.
